Measurements: ChEMBL document CHEMBL5696442, “Discovery of type II inhibitors of TGFβ-activated kinase 1 (TAK1) and mitogen-activated protein kinase kinase kinase kinase 2 (MAP4K2)” (J Med Chem, 2015)
The source made the active and inactive calls. The rule behind the calls is not given here.

What was measured:
[1] = target: LIM domain kinase 1 (Homo sapiens) (UniProt P53667); experiment: Inhibition of LIMK1 (unknown origin) at 1 uM by Ambit Kinomescan binding assay relative to control; values are per cent of control
[2] = target: Serine/threonine-protein kinase DCLK1 (Homo sapiens) (UniProt O15075); experiment: Inhibition of DCAMKL1 (unknown origin) at 1 uM by Ambit Kinomescan binding assay relative to control
[3] = target: STE20-like serine/threonine-protein kinase (Homo sapiens) (UniProt Q9H2G2); experiment: Inhibition of SLK (unknown origin) at 1 uM by Ambit Kinomescan binding assay relative to control
[4] = target: Protein-tyrosine kinase 6 (Homo sapiens) (UniProt Q13882); experiment: Inhibition of BRK (unknown origin) at 1 uM by Ambit Kinomescan binding assay relative to control; values are per cent of control
[5] = target: Wee1-like protein kinase (Homo sapiens) (UniProt P30291); experiment: Inhibition of WEE1 (unknown origin) at 1 uM by Ambit Kinomescan binding assay relative to control
[6] = target: Cyclin-dependent kinase 11A (Homo sapiens) (UniProt Q9UQ88); experiment: Inhibition of CDC2L2 (unknown origin) at 1 uM by Ambit Kinomescan binding assay relative to control; values are per cent of control
[7] = target: T1, Aurora kinase A (Homo sapiens) (UniProt O14965); experiment: Inhibition of AurA K2 labeling site harbouring VIHRDIKPENLLLGSAGELK in human Huh-7 cells at 1 uM by KiNativ Profiling analysis relative to control; assay type: cell-based
T1 sequence (whole entry): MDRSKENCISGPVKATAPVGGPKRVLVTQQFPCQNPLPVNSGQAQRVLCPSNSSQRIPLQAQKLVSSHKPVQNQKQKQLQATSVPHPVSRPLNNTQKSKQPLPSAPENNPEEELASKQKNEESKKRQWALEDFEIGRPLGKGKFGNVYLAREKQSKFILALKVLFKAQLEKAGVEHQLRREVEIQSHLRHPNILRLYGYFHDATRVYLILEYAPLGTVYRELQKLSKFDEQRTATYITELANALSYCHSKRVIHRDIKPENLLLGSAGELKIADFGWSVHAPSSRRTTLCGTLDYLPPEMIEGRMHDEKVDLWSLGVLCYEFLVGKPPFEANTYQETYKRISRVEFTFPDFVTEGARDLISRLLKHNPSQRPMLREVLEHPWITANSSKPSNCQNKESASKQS

[8] = test system: Epidermal growth factor receptor (Homo sapiens), P00533 [UNDEFINED MUTATION]; experiment: Inhibition of EGFR L747-T751del mutant (unknown origin) at 10 uM by Ambit Kinomescan binding assay relative to control
[9] = target: Tyrosine-protein kinase ABL1 (Homo sapiens, UniProt P00519); experiment: Inhibition of ABL1 (unknown origin) at 10 uM by Ambit Kinomescan binding assay relative to control; values are per cent of control
[10] = target: Calcium/calmodulin-dependent protein kinase type II subunit delta (Homo sapiens) (UniProt Q13557); experiment: Inhibition of CAMK2d K1 labeling site in human Huh-7 cells at 10 uM by KiNativ Profiling analysis relative to control; assay type: cell-based
[11] = target: Serine/threonine-protein kinase 32C (Homo sapiens) (UniProt Q86UX6); experiment: Inhibition of YANK3 K2 labeling site in human Huh-7 cells at 10 uM by KiNativ Profiling analysis relative to control; assay type: cell-based
[12] = target: T2, Ephrin type-B receptor 2 (Homo sapiens) (UniProt P29323); experiment: Inhibition of EPHB2 (unknown origin) at 10 uM by Ambit Kinomescan binding assay relative to control
T2 sequence (whole entry): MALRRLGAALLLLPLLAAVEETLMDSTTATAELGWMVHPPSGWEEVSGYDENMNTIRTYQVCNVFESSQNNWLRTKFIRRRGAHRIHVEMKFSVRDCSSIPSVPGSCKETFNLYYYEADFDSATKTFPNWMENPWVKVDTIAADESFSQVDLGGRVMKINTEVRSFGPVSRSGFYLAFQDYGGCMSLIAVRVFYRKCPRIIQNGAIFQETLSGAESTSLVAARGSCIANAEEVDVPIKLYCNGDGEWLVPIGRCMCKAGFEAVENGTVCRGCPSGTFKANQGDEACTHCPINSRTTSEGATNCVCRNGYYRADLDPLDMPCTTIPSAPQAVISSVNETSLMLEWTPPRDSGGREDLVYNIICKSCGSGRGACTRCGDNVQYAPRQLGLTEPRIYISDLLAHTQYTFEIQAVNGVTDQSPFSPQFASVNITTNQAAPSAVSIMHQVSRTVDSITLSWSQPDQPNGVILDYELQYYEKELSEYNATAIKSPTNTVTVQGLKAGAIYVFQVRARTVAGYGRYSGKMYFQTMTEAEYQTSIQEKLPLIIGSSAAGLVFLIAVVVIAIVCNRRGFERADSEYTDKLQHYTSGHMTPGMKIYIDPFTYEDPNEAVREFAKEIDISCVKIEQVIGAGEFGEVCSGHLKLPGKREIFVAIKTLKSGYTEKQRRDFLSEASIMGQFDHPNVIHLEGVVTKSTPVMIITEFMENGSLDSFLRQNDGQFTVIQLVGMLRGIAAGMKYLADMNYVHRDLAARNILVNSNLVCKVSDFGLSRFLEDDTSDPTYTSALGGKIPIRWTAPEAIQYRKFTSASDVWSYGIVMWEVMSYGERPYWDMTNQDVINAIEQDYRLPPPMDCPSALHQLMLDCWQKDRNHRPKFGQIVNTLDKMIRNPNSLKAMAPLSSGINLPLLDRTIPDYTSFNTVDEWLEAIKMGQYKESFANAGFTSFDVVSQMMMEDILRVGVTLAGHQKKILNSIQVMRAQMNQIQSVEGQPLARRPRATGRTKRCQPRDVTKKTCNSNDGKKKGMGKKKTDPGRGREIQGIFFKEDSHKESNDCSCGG

[13] = target: Ribosomal protein S6 kinase alpha-1 (Homo sapiens) (UniProt Q15418); experiment: Inhibition of RSK1 Protein Kinase Domain in human A-375 cells at 5 uM by KiNativ Profiling analysis relative to control; assay type: cell-based
[14] = target: Tyrosine-protein kinase CSK (Homo sapiens, UniProt P41240); experiment: Inhibition of CSK ACT labeling site harbouring VSDFGLTKEASSTQDTGKLPVK in human A-375 cells at 5 uM by KiNativ Profiling analysis relative to control; assay type: cell-based
[15] = target: Serine/threonine-protein kinase MRCK alpha (Homo sapiens) (UniProt Q5VT25); experiment: Inhibition of MRCKA (unknown origin) at 10 uM by Ambit Kinomescan binding assay
[16] = target: Serine/threonine-protein kinase WNK2 (Homo sapiens) (UniProt Q9Y3S1); experiment: Inhibition of Wnk2 ACT labeling site in human Huh-7 cells at 1 uM by KiNativ Profiling analysis relative to control; assay type: cell-based
[17] = target: STE20-like serine/threonine-protein kinase (Homo sapiens) (UniProt Q9H2G2); experiment: Inhibition of SLK Lys2 labeling site harbouring DLKAGNILFTLDGDIKLADFGVSAK in human Huh-7 cell lysate at 1 uM by KiNativ Profiling analysis relative to control; assay type: subcellular

STE20-like serine/threonine-protein kinase (Homo sapiens), sequence (Q9H2G2 whole entry, looked up): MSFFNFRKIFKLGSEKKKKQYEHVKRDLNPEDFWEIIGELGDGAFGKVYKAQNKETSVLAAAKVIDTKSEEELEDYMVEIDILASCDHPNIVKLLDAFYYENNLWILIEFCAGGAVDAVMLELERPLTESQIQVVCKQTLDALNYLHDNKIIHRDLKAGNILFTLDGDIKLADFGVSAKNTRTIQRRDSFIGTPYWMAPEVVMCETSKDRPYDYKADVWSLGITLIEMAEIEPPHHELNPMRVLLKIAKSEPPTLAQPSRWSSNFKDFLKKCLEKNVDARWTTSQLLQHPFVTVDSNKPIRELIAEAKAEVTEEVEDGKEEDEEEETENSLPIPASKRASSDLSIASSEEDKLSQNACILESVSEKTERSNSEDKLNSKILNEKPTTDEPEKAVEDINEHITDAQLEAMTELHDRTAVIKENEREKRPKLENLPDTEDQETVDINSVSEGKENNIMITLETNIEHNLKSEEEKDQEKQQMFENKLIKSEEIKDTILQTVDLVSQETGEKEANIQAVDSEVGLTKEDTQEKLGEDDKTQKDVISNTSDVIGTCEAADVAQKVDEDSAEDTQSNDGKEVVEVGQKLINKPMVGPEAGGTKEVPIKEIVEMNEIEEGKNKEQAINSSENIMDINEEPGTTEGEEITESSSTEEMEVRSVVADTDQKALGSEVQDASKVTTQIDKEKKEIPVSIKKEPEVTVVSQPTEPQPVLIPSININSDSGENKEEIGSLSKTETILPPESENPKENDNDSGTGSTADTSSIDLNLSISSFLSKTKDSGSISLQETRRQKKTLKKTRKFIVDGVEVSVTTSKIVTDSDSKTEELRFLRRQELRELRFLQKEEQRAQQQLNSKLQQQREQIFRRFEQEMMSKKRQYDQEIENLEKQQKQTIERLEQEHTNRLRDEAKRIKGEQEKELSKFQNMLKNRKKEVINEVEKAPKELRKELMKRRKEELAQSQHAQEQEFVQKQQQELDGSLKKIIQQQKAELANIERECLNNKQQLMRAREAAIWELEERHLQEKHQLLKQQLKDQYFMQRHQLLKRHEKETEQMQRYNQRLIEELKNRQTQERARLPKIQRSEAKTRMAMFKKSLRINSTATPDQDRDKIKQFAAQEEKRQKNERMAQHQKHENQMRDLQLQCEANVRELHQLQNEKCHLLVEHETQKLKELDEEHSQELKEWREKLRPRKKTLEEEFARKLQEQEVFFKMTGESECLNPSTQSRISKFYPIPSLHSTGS
Serine/threonine-protein kinase MRCK alpha (Homo sapiens), sequence (Q5VT25 whole entry): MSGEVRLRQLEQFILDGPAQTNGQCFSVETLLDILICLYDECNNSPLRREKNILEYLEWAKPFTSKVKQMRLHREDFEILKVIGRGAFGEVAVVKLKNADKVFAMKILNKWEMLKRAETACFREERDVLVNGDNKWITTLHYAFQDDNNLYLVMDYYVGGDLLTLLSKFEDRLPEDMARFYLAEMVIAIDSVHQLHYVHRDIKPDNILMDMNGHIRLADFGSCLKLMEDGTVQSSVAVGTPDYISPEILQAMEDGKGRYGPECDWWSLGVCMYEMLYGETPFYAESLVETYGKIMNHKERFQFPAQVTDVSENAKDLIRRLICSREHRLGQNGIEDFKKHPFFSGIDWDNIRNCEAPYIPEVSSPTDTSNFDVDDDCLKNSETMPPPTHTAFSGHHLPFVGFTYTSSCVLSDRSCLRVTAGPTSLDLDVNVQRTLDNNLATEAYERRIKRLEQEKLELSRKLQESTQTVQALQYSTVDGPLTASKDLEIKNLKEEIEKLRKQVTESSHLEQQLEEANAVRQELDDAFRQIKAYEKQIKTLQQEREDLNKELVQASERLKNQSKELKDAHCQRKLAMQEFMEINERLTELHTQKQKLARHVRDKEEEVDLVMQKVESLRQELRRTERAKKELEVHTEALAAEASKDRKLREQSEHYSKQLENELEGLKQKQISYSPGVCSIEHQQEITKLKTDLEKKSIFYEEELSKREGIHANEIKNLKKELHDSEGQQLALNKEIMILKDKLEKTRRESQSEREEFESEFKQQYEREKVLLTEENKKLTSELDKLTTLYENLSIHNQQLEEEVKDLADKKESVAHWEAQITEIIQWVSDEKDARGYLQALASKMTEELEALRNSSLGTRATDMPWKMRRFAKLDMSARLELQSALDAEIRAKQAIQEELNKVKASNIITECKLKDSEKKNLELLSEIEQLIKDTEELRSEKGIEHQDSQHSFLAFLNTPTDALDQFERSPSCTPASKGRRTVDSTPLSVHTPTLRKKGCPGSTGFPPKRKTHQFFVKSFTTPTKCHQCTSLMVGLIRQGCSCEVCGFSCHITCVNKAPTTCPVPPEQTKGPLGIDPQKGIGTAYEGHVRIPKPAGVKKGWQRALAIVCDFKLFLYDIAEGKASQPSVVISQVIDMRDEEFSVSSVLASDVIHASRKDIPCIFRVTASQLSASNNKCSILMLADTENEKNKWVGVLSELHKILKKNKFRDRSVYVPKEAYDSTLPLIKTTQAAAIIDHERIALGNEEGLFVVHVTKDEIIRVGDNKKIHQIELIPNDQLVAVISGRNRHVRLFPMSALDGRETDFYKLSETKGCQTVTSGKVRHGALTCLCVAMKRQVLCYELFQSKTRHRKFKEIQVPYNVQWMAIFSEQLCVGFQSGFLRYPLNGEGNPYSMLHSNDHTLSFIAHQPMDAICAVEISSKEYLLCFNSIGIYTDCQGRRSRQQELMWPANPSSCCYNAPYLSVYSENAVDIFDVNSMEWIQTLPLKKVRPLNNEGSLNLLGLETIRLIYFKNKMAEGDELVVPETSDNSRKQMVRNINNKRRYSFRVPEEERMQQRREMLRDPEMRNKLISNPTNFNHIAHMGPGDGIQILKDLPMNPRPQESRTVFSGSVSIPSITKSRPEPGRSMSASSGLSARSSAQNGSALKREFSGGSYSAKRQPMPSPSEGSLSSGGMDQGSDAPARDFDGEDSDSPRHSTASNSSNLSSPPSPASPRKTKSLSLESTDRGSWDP
LIM domain kinase 1 (Homo sapiens), sequence (P53667 whole entry, looked up, the tested form may be a part): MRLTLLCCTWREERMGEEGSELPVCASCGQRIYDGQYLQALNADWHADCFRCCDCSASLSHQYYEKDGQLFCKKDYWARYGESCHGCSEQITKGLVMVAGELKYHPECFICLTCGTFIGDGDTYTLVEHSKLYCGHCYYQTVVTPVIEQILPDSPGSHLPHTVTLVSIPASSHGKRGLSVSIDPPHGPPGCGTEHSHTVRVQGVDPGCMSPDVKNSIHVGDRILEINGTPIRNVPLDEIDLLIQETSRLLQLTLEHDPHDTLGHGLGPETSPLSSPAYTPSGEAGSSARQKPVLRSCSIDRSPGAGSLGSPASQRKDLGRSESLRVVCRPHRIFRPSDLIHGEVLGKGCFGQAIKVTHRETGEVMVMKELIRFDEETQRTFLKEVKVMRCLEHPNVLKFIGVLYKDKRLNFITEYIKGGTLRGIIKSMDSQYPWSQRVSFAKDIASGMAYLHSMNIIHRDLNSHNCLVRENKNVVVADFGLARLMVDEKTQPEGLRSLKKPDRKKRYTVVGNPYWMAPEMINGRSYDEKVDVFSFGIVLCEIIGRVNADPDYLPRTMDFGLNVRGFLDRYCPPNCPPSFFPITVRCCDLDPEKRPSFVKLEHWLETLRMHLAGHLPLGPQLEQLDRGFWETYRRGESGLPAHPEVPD
Wee1-like protein kinase (Homo sapiens), sequence (P30291 whole entry, looked up): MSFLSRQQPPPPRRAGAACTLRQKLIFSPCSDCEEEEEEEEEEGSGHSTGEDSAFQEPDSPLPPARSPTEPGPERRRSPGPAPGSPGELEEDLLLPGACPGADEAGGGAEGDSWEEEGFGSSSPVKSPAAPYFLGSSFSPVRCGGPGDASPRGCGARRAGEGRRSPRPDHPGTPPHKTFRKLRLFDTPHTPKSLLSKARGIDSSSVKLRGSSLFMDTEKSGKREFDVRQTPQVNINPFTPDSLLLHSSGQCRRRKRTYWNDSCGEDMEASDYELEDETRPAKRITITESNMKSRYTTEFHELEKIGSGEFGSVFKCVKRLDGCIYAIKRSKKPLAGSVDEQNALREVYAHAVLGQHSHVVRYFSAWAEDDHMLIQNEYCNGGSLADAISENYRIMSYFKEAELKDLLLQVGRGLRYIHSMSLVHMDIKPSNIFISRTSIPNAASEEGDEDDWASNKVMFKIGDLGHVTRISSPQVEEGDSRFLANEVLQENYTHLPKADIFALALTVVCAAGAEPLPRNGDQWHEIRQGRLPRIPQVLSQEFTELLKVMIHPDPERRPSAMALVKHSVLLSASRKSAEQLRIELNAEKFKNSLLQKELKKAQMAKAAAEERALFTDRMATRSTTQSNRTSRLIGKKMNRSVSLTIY
Tyrosine-protein kinase CSK, sequence (P41240 2-450 limits assumed): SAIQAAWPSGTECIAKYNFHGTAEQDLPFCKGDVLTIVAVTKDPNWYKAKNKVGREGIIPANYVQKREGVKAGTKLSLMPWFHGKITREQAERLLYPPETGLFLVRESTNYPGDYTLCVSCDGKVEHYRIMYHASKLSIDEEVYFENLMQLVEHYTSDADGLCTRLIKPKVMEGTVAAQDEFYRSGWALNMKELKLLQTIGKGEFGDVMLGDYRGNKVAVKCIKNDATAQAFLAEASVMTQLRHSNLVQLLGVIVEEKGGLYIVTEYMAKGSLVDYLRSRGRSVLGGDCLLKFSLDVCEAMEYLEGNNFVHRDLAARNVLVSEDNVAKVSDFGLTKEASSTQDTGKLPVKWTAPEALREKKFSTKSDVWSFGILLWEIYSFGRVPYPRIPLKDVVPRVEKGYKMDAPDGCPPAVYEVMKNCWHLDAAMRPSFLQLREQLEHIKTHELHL

CCN1CCN(Cc2ccc(NC(=O)c3ccc(C)c(/C=C/c4cnc5[nH]ccc5c4OC)c3)cc2C(F)(F)F)CC1
residual activity [1]: 25%
inhibition [2]: 100%
inhibition [3]: 13%
residual activity [4]: 64%
inhibition [5]: 100%
residual activity [6]: 70%

CCN1CCN(Cc2ccc(NC(=O)c3ccc(C)c(Oc4ccnc5[nH]ccc45)c3)cc2C(F)(F)F)CC1
inhibition [7]: inactive
inhibition [8]: 1.1%
percent of control [9]: 0.1%
inhibition [10]: 0.1%
inhibition [11]: 2.5%
inhibition [12]: 11%
inhibition [13]: 5.8%
inhibition [14]: 78.2%
inhibition [15]: inactive

CNc1cc(Oc2cc(C(=O)Nc3cc(N4CCN(C)CC4)cc(C(F)(F)F)c3)ccc2C)ncn1
inhibition [16]: 21.6%
inhibition [17]: 30.2%
